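How tested: cells in 96-well plates exposed to compound for 48 hours at five concentrations. GI50 = concentration required for 50% inhibition of growth.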 The source made the active and inactive calls. Rule as the data show it: active = GI50 up to about 1.1 µM and inactive = higher.
What was measured:
Experiment in all cases: DTP human tumour cell line panel, 48 h
ACHN = tested on: ACHN
BT-549 = tested on: BT-549
EKVX = tested on: EKVX
HCC 2998 = tested on: HCC 2998
HL-60 = tested on: HL-60
HOP-62 = tested on: HOP-62
LOX IMVI = tested on: LOX IMVI
MCF7 = tested on: MCF7
MDA-MB-231 = tested on: MDA-MB-231
MDA-MB-435 = tested on: MDA-MB-435
MDA-N = tested on: MDA-N
NCI-H226 = tested on: NCI-H226
NCI-H522 = tested on: NCI-H522
OVCAR-4 = tested on: OVCAR-4
RXF 393 = tested on: RXF 393
SF-295 = tested on: SF-295
SF-539 = tested on: SF-539
SNB-19 = tested on: SNB-19
SNB-75 = tested on: SNB-75
UACC-62 = tested on: UACC-62

Measured: GI50

c1nnc(NCNc2nncs2)s1
inactive: ACHN 29.4 µM | BT-549 > 100 µM | EKVX 23.3 µM | HCC 2998 19.2 µM | HL-60 46.3 µM | HOP-62 46.5 µM | LOX IMVI 32.7 µM | MCF7 38.5 µM | MDA-MB-231 30.7 µM | MDA-MB-435 28.6 µM | MDA-N 35.2 µM | NCI-H226 > 100 µM | NCI-H522 48.1 µM | OVCAR-4 11.7 µM | RXF 393 29 µM | SF-295 28.1 µM | SF-539 31 µM | SNB-19 > 100 µM | SNB-75 30 µM | UACC-62 93.3 µM

O=C(CCc1ccc(O)cc1)NCCc1ccc(O)cc1
inactive: ACHN 62.4 µM | BT-549 62.4 µM | EKVX > 100 µM | HCC 2998 > 100 µM | HL-60 > 100 µM | HOP-62 > 100 µM | LOX IMVI > 100 µM | MCF7 > 100 µM | MDA-MB-231 > 100 µM | MDA-MB-435 > 100 µM | MDA-N > 100 µM | NCI-H226 > 100 µM | NCI-H522 > 100 µM | OVCAR-4 > 100 µM | RXF 393 > 100 µM | SF-295 > 100 µM | SF-539 > 100 µM | SNB-19 > 100 µM | UACC-62 > 100 µM

Oc1ccc(C(c2ccc(O)cc2)c2ccc(O)cc2)cc1
inactive: ACHN 27.3 µM | BT-549 20.5 µM | EKVX 15.3 µM | HCC 2998 18 µM | HL-60 18.9 µM | LOX IMVI 19.3 µM | MCF7 32.4 µM | MDA-MB-231 16.3 µM | MDA-MB-435 19.7 µM | MDA-N 25.9 µM | NCI-H226 10.4 µM | NCI-H522 17.1 µM | OVCAR-4 9.71 µM | RXF 393 17.2 µM | SF-295 41.4 µM | SF-539 20.8 µM | SNB-19 24.4 µM | UACC-62 14.5 µM

Nc1ccc(I)cn1
inactive: ACHN > 100 µM | BT-549 > 100 µM | EKVX > 100 µM | HCC 2998 > 100 µM | HL-60 > 100 µM | HOP-62 > 100 µM | LOX IMVI > 100 µM | MCF7 > 100 µM | MDA-MB-231 > 100 µM | MDA-MB-435 > 100 µM | MDA-N > 100 µM | NCI-H226 > 100 µM | NCI-H522 > 100 µM | OVCAR-4 > 100 µM | RXF 393 > 100 µM | SF-295 > 100 µM | SNB-19 > 100 µM | SNB-75 > 100 µM | UACC-62 > 100 µM

N/C(=N/c1ccc(O)cc1)S(=O)(=O)O
inactive: ACHN > 100 µM | BT-549 > 100 µM | EKVX > 100 µM | HCC 2998 > 100 µM | HL-60 > 100 µM | HOP-62 > 100 µM | LOX IMVI > 100 µM | MCF7 > 100 µM | MDA-MB-231 > 100 µM | MDA-MB-435 > 100 µM | MDA-N > 100 µM | NCI-H226 > 100 µM | NCI-H522 > 100 µM | OVCAR-4 > 100 µM | RXF 393 > 100 µM | SF-295 > 100 µM | SF-539 > 100 µM | SNB-19 > 100 µM | SNB-75 > 100 µM | UACC-62 > 100 µM

OCC1OC(O)C(/N=C\c2ccc3c(c2)OCO3)C(O)C1O (stereo not given)
inactive: ACHN > 100 µM | BT-549 > 100 µM | EKVX > 65.3 µM | HCC 2998 > 100 µM | HL-60 > 100 µM | HOP-62 > 100 µM | LOX IMVI > 100 µM | MCF7 > 100 µM | MDA-MB-231 > 100 µM | MDA-MB-435 > 100 µM | MDA-N > 100 µM | NCI-H226 > 100 µM | NCI-H522 > 100 µM | OVCAR-4 > 100 µM | RXF 393 > 100 µM | SF-295 > 100 µM | SF-539 > 100 µM | SNB-19 > 100 µM | SNB-75 > 100 µM | UACC-62 > 100 µM

CCCCCCCCCCCCP(=O)(O)OCC(N)C(=O)O (stereo not given)
inactive: ACHN 40.3 µM | BT-549 29.6 µM | EKVX 93.3 µM | HCC 2998 30.5 µM | HL-60 15.8 µM | HOP-62 16.1 µM | LOX IMVI 24.9 µM | MCF7 42.1 µM | MDA-MB-231 16.4 µM | MDA-MB-435 18.3 µM | MDA-N 21.4 µM | NCI-H226 40.7 µM | NCI-H522 5.22 µM | OVCAR-4 76.2 µM | RXF 393 48.1 µM | SF-295 17.4 µM | SF-539 20.7 µM | SNB-19 16.6 µM | SNB-75 11.4 µM

— ChEMBL document CHEMBL1201862, “PubChem BioAssay data set” (2004)
